Test results reported in PubChem BioAssay (NCI).
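Step 1: Grow cells in 96-well plates. Step 2: Expose to compound for 48 hours at 5 concentrations. Step 3: Interpolate endpoints linearly; if unreached, use highest concentration. Abbreviation: GI50, concentration required for 50% inhibition of growth. The concentration for full growth arrest is given as TGI.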

Tests used:
Assay in all cases: NCI anticancer screen, dose series, 48 h
786-0 renal = test system: 786-0 renal
A498 renal = test system: A498 renal
A549 NSCLC = test system: A549 NSCLC
ACHN renal = test system: ACHN renal
BT-549 breast = test system: BT-549 breast
CAKI-1 renal = test system: CAKI-1 renal
CCRF-CEM leukemia = test system: CCRF-CEM leukemia
COLO 205 colon = test system: COLO 205 colon
DU-145 prostate = test system: DU-145 prostate
HCC-2998 colon = test system: HCC-2998 colon
HCT-116 colon = test system: HCT-116 colon
HCT-15 colon = test system: HCT-15 colon
HL-60(TB) leukemia = test system: HL-60(TB) leukemia
HOP-62 NSCLC = test system: HOP-62 NSCLC
HOP-92 NSCLC = test system: HOP-92 NSCLC
HS 578T breast = test system: HS 578T breast
HT29 colon = test system: HT29 colon
IGROV1 ovarian = test system: IGROV1 ovarian
K-562 leukemia = test system: K-562 leukemia
KM12 colon = test system: KM12 colon
LOX IMVI melanoma = test system: LOX IMVI melanoma
M14 melanoma = test system: M14 melanoma
MALME-3M melanoma = test system: MALME-3M melanoma
MCF7 breast = test system: MCF7 breast
MDA-MB-231 breast = test system: MDA-MB-231 breast
MDA-MB-435 = test system: MDA-MB-435
MOLT-4 leukemia = test system: MOLT-4 leukemia
NCI-H226 lung = test system: NCI-H226 lung
NCI-H23 lung = test system: NCI-H23 lung
NCI-H460 lung = test system: NCI-H460 lung
NCI-H522 lung = test system: NCI-H522 lung
NCI/ADR-RES ovarian = test system: NCI/ADR-RES ovarian
OVCAR-3 ovarian = test system: OVCAR-3 ovarian
OVCAR-4 ovarian = test system: OVCAR-4 ovarian
OVCAR-5 ovarian = test system: OVCAR-5 ovarian
OVCAR-8 ovarian = test system: OVCAR-8 ovarian
PC-3 prostate = test system: PC-3 prostate
RPMI-8226 leukemia = test system: RPMI-8226 leukemia
RXF 393 renal = test system: RXF 393 renal
SF-268 CNS = test system: SF-268 CNS
SF-295 CNS = test system: SF-295 CNS
SF-539 CNS = test system: SF-539 CNS
SK-MEL-2 melanoma = test system: SK-MEL-2 melanoma
SK-MEL-28 melanoma = test system: SK-MEL-28 melanoma
SK-MEL-5 melanoma = test system: SK-MEL-5 melanoma
SK-OV-3 ovarian = test system: SK-OV-3 ovarian
SN12C renal = test system: SN12C renal
SNB-19 CNS = test system: SNB-19 CNS
SNB-75 CNS = test system: SNB-75 CNS
SR leukemia = test system: SR leukemia
SW-620 colon = test system: SW-620 colon
T-47D breast = test system: T-47D breast
TK-10 renal = test system: TK-10 renal
U251 CNS = test system: U251 CNS
UACC-257 melanoma = test system: UACC-257 melanoma
UACC-62 melanoma = test system: UACC-62 melanoma
UO-31 renal = test system: UO-31 renal

CCN(Cc1ccncc1)c1ccc(CO)c(Cl)c1
GI50 (786-0 renal): > 57 µM
TGI (786-0 renal): > 100 µM
GI50 (A498 renal): 0.0525 µM
TGI (A498 renal): 0.203 µM
GI50 (A549 NSCLC): 8.48 µM
TGI (A549 NSCLC): > 100 µM
GI50 (ACHN renal): > 100 µM
TGI (ACHN renal): > 100 µM
GI50 (BT-549 breast): > 100 µM
TGI (BT-549 breast): > 100 µM
GI50 (CAKI-1 renal): 61.6 µM
TGI (CAKI-1 renal): > 100 µM
GI50 (CCRF-CEM leukemia): > 100 µM
TGI (CCRF-CEM leukemia): > 100 µM
GI50 (COLO 205 colon): 1.77 µM
TGI (COLO 205 colon): 6.34 µM
GI50 (DU-145 prostate): > 100 µM
TGI (DU-145 prostate): > 100 µM
GI50 (HCC-2998 colon): 22 µM
TGI (HCC-2998 colon): > 100 µM
GI50 (HCT-116 colon): 0.352 µM
TGI (HCT-116 colon): > 100 µM
GI50 (HCT-15 colon): > 100 µM
TGI (HCT-15 colon): > 100 µM
GI50 (HL-60(TB) leukemia): > 32 µM
TGI (HL-60(TB) leukemia): > 100 µM
GI50 (HOP-62 NSCLC): 5.03 µM
TGI (HOP-62 NSCLC): > 100 µM
GI50 (HOP-92 NSCLC): 2.69 µM
TGI (HOP-92 NSCLC): > 74.1 µM
GI50 (HS 578T breast): > 100 µM
TGI (HS 578T breast): > 100 µM
GI50 (HT29 colon): 4.07 µM
TGI (HT29 colon): > 100 µM
GI50 (IGROV1 ovarian): 0.372 µM
TGI (IGROV1 ovarian): 2.48 µM
GI50 (K-562 leukemia): 5.62 µM
TGI (K-562 leukemia): > 100 µM
GI50 (KM12 colon): > 100 µM
TGI (KM12 colon): > 100 µM
GI50 (LOX IMVI melanoma): > 100 µM
TGI (LOX IMVI melanoma): > 100 µM
GI50 (M14 melanoma): > 100 µM
TGI (M14 melanoma): > 100 µM
GI50 (MALME-3M melanoma): > 100 µM
TGI (MALME-3M melanoma): > 100 µM
GI50 (MCF7 breast): 0.589 µM
TGI (MCF7 breast): > 100 µM
GI50 (MDA-MB-231 breast): > 100 µM
TGI (MDA-MB-231 breast): > 100 µM
GI50 (MDA-MB-435): > 100 µM
TGI (MDA-MB-435): > 100 µM
GI50 (MOLT-4 leukemia): > 100 µM
TGI (MOLT-4 leukemia): > 100 µM
GI50 (NCI-H226 lung): 0.127 µM
TGI (NCI-H226 lung): 0.32 µM
GI50 (NCI-H23 lung): > 100 µM
TGI (NCI-H23 lung): > 100 µM
GI50 (NCI-H460 lung): 0.638 µM
TGI (NCI-H460 lung): > 100 µM
GI50 (NCI-H522 lung): > 100 µM
TGI (NCI-H522 lung): > 100 µM
GI50 (NCI/ADR-RES ovarian): 81.1 µM
TGI (NCI/ADR-RES ovarian): > 100 µM
GI50 (OVCAR-3 ovarian): 1.14 µM
TGI (OVCAR-3 ovarian): 4.67 µM
GI50 (OVCAR-4 ovarian): 0.548 µM
TGI (OVCAR-4 ovarian): 6.27 µM
GI50 (OVCAR-5 ovarian): 0.152 µM
TGI (OVCAR-5 ovarian): 0.584 µM
GI50 (OVCAR-8 ovarian): 96.9 µM
TGI (OVCAR-8 ovarian): > 100 µM
GI50 (PC-3 prostate): > 100 µM
TGI (PC-3 prostate): > 100 µM
GI50 (RPMI-8226 leukemia): 15.6 µM
TGI (RPMI-8226 leukemia): > 100 µM
TGI (RXF 393 renal): > 100 µM
GI50 (SF-268 CNS): > 100 µM
TGI (SF-268 CNS): > 100 µM
GI50 (SF-295 CNS): 0.951 µM
TGI (SF-295 CNS): > 56.3 µM
GI50 (SF-539 CNS): > 100 µM
TGI (SF-539 CNS): > 100 µM
GI50 (SK-MEL-2 melanoma): > 24.7 µM
TGI (SK-MEL-2 melanoma): > 100 µM
GI50 (SK-MEL-28 melanoma): > 100 µM
TGI (SK-MEL-28 melanoma): > 100 µM
GI50 (SK-MEL-5 melanoma): 23.8 µM
TGI (SK-MEL-5 melanoma): > 100 µM
GI50 (SK-OV-3 ovarian): > 76.1 µM
TGI (SK-OV-3 ovarian): > 100 µM
GI50 (SN12C renal): > 100 µM
TGI (SN12C renal): > 100 µM
GI50 (SNB-19 CNS): > 100 µM
TGI (SNB-19 CNS): > 100 µM
GI50 (SNB-75 CNS): > 77.8 µM
TGI (SNB-75 CNS): > 100 µM
GI50 (SR leukemia): > 100 µM
TGI (SR leukemia): > 100 µM
GI50 (SW-620 colon): 3.74 µM
TGI (SW-620 colon): > 100 µM
GI50 (T-47D breast): 0.367 µM
TGI (T-47D breast): 2.84 µM
GI50 (TK-10 renal): 0.0945 µM
TGI (TK-10 renal): 0.34 µM
GI50 (U251 CNS): 4.22 µM
TGI (U251 CNS): > 100 µM
GI50 (UACC-257 melanoma): 0.237 µM
TGI (UACC-257 melanoma): 0.738 µM
GI50 (UACC-62 melanoma): 0.333 µM
TGI (UACC-62 melanoma): 2.17 µM
GI50 (UO-31 renal): 24.9 µM
TGI (UO-31 renal): > 100 µM
